Test: recombinant barcode read abundance after kanamycin selection (control-corrected) (log10(CPM+1)); higher = more efficient recombination; sequences stand for … in AGTGCAGAGAAAATCGGCCAGTTTTCTCTGCCTGCAGTCCGCATGCCGT…AGATTTATGCAGCGGACTGCCTTTCTCCCAAAGTGATAAACCGGACAGTATCATGGACCGGTTTTCCCGGTAATCCGTATTTGCAAGGTTGGTTTCACT; site = the 11-nt target
In short: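 Recombination efficiency was calculated from barcode counts at recombinant junctions, normalized to counts per million, averaged and corrected by the control. Each value is given as log10(CPM+1). The constructs were Gibson-cloned oligos (promoter, target, barcode, J23119-driven first 104 bridge RNA bases) in a vector with the remaining 73 bp and a T7-inducible recombinase, co-electroporated into E. coli with a donor plasmid and plated in duplicate on chloramphenicol/ampicillin LB agar (control) or chloramphenicol/ampicillin/kanamycin with 0.1 mM IPTG.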
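Further: IS621 recombinase and bridge RNA in Escherichia coli cells.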

Sequence | recombinant barcode read abundance (log10)
CATCCATCTTGGGTTCTAACCTGTTGCAT (site CATCCATCTAT) | 0.883
CATCCATCTTGGGTTCTAACCTGTTGCAT (site TCGAGGCCTTA) | 0.328
CATCCTCCTTGGGTTCTAACCTGTTGCTT (site CAGCCTTCTAA) | 0.103
CATCCTCCTTGGGTTCTAACCTGTTGCTT (site CATCCTCCTAA) | 0.0487
CATCGATCTTGGGTTCTAACCTGTTGCGT (site CATCGATCTAC) | 1.6
CATCGATCTTGGGTTCTAACCTGTTGCGT (site CTTTGATCTAC) | 0.0816
CATCGGACTTGGGTTCTAACCTGTTGCGA (site AGGGCACCTCT) | 0.112
CATCGGACTTGGGTTCTAACCTGTTGCGA (site CATCGGACTTC) | 1.35
CATGAGACTTGGGTTCTAACCTGTTGCGG (site CATGAGACTCC) | 2.18
CATGAGACTTGGGTTCTAACCTGTTGCGG (site GCGATCCCTAA) | 0.0802
CATGAGCCTTGGGTTCTAACCTGTTGCCT (site CATAAGCCTAG) | 0.694
CATGAGCCTTGGGTTCTAACCTGTTGCCT (site CATCAGCCTAG) | 0.0278
CATGAGCCTTGGGTTCTAACCTGTTGCCT (site CATGAGCCTAG) | 2.23
CATGAGCCTTGGGTTCTAACCTGTTGCCT (site CATTAGCCTAG) | 0.196
CATGATTCTTGGGTTCTAACCTGTTGCCT (site CATAATTCTAG) | 0.0239
CATGATTCTTGGGTTCTAACCTGTTGCCT (site CATCATTCTAG) | 0.087
CATGATTCTTGGGTTCTAACCTGTTGCCT (site CATGATTCTAG) | 1.05
CATGATTCTTGGGTTCTAACCTGTTGCCT (site CATTATTCTAG) | 0.0435
CATGCTCCTTGGGTTCTAACCTGTTGCAT (site CATGCTCCTAG) | 0.168
CATGCTCCTTGGGTTCTAACCTGTTGCAT (site CATGCTCCTAT) | 0.194
CATGCTCCTTGGGTTCTAACCTGTTGCCT (site CATGCTCCTAG) | 0.353
CATGCTCCTTGGGTTCTAACCTGTTGCCT (site CATGCTCCTAT) | 0.512

Sequence | recombinant barcode read abundance (log10)
CATTAGCCTTGGGTTCTAACCTGTTGCCT (site CATAAGCCTAG) | 0.0881
CATTAGCCTTGGGTTCTAACCTGTTGCCT (site CATCAGCCTAG) | 0.26
CATTAGCCTTGGGTTCTAACCTGTTGCCT (site CATGAGCCTAG) | 0.0107
CATTAGCCTTGGGTTCTAACCTGTTGCCT (site CATTAGCCTAG) | 0.583
CATTAGTCTTGGGTTCTAACCTGTTGCCT (site CATTAGTCTAG) | 1.33
CATTAGTCTTGGGTTCTAACCTGTTGCCT (site TATTAATCTAG) | 0.0986
CATTATCCTTGGGTTCTAACCTGTTGCCT (site CAATATCCTAG) | 0.0661
CATTATCCTTGGGTTCTAACCTGTTGCCT (site CACTATCCTAG) | 0.161
CATTATCCTTGGGTTCTAACCTGTTGCCT (site CAGTATCCTAG) | 0.0928
CATTATCCTTGGGTTCTAACCTGTTGCCT (site CATTATCCTAG) | 0.136
CATTCAACTTGGGTTCTAACCTGTTGCCG (site CATTCAACTAG) | 0.0546
CATTCAACTTGGGTTCTAACCTGTTGCCG (site CATTCAACTCG) | 0.0716
CCAAGATCTTGGGTTCTAACCTGTTGCCT (site CAAAGATCTAG) | 0.178
CCAAGATCTTGGGTTCTAACCTGTTGCCT (site CCAAGATCTAG) | 0.556
CCAAGATCTTGGGTTCTAACCTGTTGCCT (site CGAAGATCTAG) | 0.201
CCAAGATCTTGGGTTCTAACCTGTTGCCT (site CTAAGATCTAG) | 0.46
CCAAGCGCTTGGGTTCTAACCTGTTGCCT (site CCAAGCACTAG) | 0.589
CCAAGCGCTTGGGTTCTAACCTGTTGCCT (site CCAAGCCCTAG) | 0.0283
CCAAGCGCTTGGGTTCTAACCTGTTGCCT (site CCAAGCGCTAG) | 0.769
CCAAGCGCTTGGGTTCTAACCTGTTGCCT (site CCAAGCTCTAG) | 0.209
CCAAGGGCTTGGGTTCTAACCTGTTGCAG (site CCAAGGGCTCA) | 1.09
CCAAGGGCTTGGGTTCTAACCTGTTGCAG (site CCAAGGGCTCC) | 0.546

Sequence | recombinant barcode read abundance (log10)
CCAAGGGCTTGGGTTCTAACCTGTTGCAG (site CCAAGGGCTCG) | 0.537
CCAAGGGCTTGGGTTCTAACCTGTTGCAG (site CCAAGGGCTCT) | 2.13
CCAAGGGCTTGGGTTCTAACCTGTTGCCG (site CCAAGGGCTCA) | 0.0491
CCAAGGGCTTGGGTTCTAACCTGTTGCCG (site CCAAGGGCTCC) | 0.211
CCAAGGGCTTGGGTTCTAACCTGTTGCCG (site CCAAGGGCTCG) | 0.143
CCAAGGGCTTGGGTTCTAACCTGTTGCCG (site CCAAGGGCTCT) | 0.33
CCAAGTCCTTGGGTTCTAACCTGTTGCCA (site CCAAGTCCTTG) | 0.0554
CCAAGTCCTTGGGTTCTAACCTGTTGCCA (site GTTCAGACTAA) | 0.031
CCAATTGCTTGGGTTCTAACCTGTTGCCT (site CCAATTGCTAG) | 0.108
CCAATTGCTTGGGTTCTAACCTGTTGCCT (site CTAATTGCTAG) | 0.0541
CCACTCCCTTGGGTTCTAACCTGTTGCCT (site CCACTACCTAG) | 0.166
CCACTCCCTTGGGTTCTAACCTGTTGCCT (site CCACTCCCTAG) | 0.0427
CCACTCCCTTGGGTTCTAACCTGTTGCCT (site CCACTGCCTAG) | 0.0666
CCACTCCCTTGGGTTCTAACCTGTTGCCT (site CCACTTCCTAG) | 0.279
CCACTTCCTTGGGTTCTAACCTGTTGCCT (site CCACTACCTAG) | 0.233
CCACTTCCTTGGGTTCTAACCTGTTGCCT (site CCACTCCCTAG) | 0.176
CCACTTCCTTGGGTTCTAACCTGTTGCCT (site CCACTGCCTAG) | 0.0522
CCACTTCCTTGGGTTCTAACCTGTTGCCT (site CCACTTCCTAG) | 0.0928
CCAGAAGCTTGGGTTCTAACCTGTTGCGT (site CCAGAAGCTAC) | 0.279
CCAGAAGCTTGGGTTCTAACCTGTTGCGT (site CCAGTAGCTCC) | 0.434
CCAGCTGCTTGGGTTCTAACCTGTTGCCT (site CCAGCTGCTAG) | 1.11
CCAGCTGCTTGGGTTCTAACCTGTTGCCT (site GTGCGCTCTGC) | 0.137

Sequence | recombinant barcode read abundance (log10)
CCAGGAGCTTGGGTTCTAACCTGTTGCAG (site CCAGGAGCTCT) | 0.312
CCAGGAGCTTGGGTTCTAACCTGTTGCAG (site TCTGGAGCTCT) | 0.141
CCAGGGACTTGGGTTCTAACCTGTTGCCT (site CCAAGGACTAG) | 0.683
CCAGGGACTTGGGTTCTAACCTGTTGCCT (site CCACGGACTAG) | 0.294
CCAGGGACTTGGGTTCTAACCTGTTGCCT (site CCAGGGACTAG) | 1.31
CCAGGGACTTGGGTTCTAACCTGTTGCCT (site CCATGGACTAG) | 0.0751
CCAGTTACTTGGGTTCTAACCTGTTGCCT (site CCAGTAACTAG) | 0.104
CCAGTTACTTGGGTTCTAACCTGTTGCCT (site CCAGTCACTAG) | 0.132
CCAGTTACTTGGGTTCTAACCTGTTGCCT (site CCAGTGACTAG) | 0.195
CCAGTTACTTGGGTTCTAACCTGTTGCCT (site CCAGTTACTAG) | 0.351
CCATACCCTTGGGTTCTAACCTGTTGCTA (site ATCATAGCTGC) | 0.019
CCATACCCTTGGGTTCTAACCTGTTGCTA (site CCATACCCTTA) | 0.884
CCATAGTCTTGGGTTCTAACCTGTTGCTT (site CCATAGTCTAA) | 0.732
CCATAGTCTTGGGTTCTAACCTGTTGCTT (site GCACAGTCTAA) | 0.052
CCATCCTCTTGGGTTCTAACCTGTTGCTT (site CAATCCTCTAA) | 0.04
CCATCCTCTTGGGTTCTAACCTGTTGCTT (site CCATCCTCTAA) | 0.0749
CCATGGTCTTGGGTTCTAACCTGTTGCTT (site CCATACTCTAA) | 0.01
CCATGGTCTTGGGTTCTAACCTGTTGCTT (site CCATGGTCTAA) | 1.78
CCGAATCCTTGGGTTCTAACCTGTTGCCT (site CCGAATCCTAG) | 0.355
CCGAATCCTTGGGTTCTAACCTGTTGCCT (site CCGACTCCTAG) | 0.361
